# Assay results as given in ChEMBL document CHEMBL1146285, “Trimethylsilylpyrazoles as novel inhibitors of p38 MAP kinase: a new use of silicon bioisosteres in medicinal chemistry” (Bioorg Med Chem Lett, 2007).
# Experiments:
# [1] = Partition coefficient, log P of the compound; format: physicochemical; details: octanol/water
# [2] = Distribution coefficient, log D at pH 6.0; format: physicochemical; details: octanol/water
# [3] = Distribution coefficient, log D at pH 7.4; format: physicochemical; details: octanol/water
# Mus musculus [4] = assay: Suppression of lipopolysaccharide-induced TNFalpha release in mouse at 10 mg/kg, po after 30 mins; format: functional
# [5] = Metabolic stability in human liver microsomes at 1 uM after 40 mins; format: ADME, Microsome; details: read-out: Stability
# [6] = Distribution coefficient, log D at pH 6.5; format: physicochemical; details: octanol/water
# Mus musculus [7] = assay: Suppression of lipopolysaccharide-induced TNFalpha release in mouse at 10 mg/kg, po after 120 mins; format: functional
smiles,measurement,setting,value
Cc1ccc(-n2nc(C(C)(C)C)cc2NC(=O)Nc2ccc(OCCN3CCOCC3)c3ccccc23)cc1 [DORAMAPIMOD],logP,[1],5.2
same,logD,[2],4.6
same,logD,[3],5.1
same,Activity,Mus musculus [4],-41%
same,"remaining at 40 min, 1 µM",[5],79%
same,logD,[6],4.9
same,Activity,Mus musculus [7],-40%
